Entries after “also recorded” stand apart in the source; their conditions may differ.
Legend:
[1] = tested on: imine reductase purified from GF3587; experiment: Substrate specificity of imine reductase purified from GF3587 (decrease of NADPH absorbance at 340 nm); format: biochemical, Streptomyces sp. GF3587; conditions: for Relative Activity: 2-MPN = 100; for level of activity of reducing the compound, activity of reducing 2-methyl-1-pyrroline taken as 100: relative to 2-MPN = 100
Protocol: To assess the substrate specificity of the imine reductase purified from GF3587, the activities of the enzyme towards the compounds listed in Table 4 were compared.
One ml of reaction mixtures having the composition described below were incubated at […]. The reaction mixtures were assayed to determine the decrease in absorbance (340 nm) of NADPH due to the generation of (R)-2-methylpyrrolidine. An imine reductase solution (2.04 U/ml) was added to reaction solutions containing each substrate compound shown in Table 4 to initiate the reaction. The absorbance of each reaction solution was determined at 340 nm after two minutes of incubation.
The relative activity shown in the table is defined as relative activity when the enzymatic activity on […] (2-MPN) is taken as 100.

[2] = tested on: imine reductase responsible for the reduction of 2-methyl-1-pyrroline (crude enzyme solution); experiment: Coenzyme dependency of 2-methyl-1-pyrroline reduction by crude enzyme solution; format: biochemical, Streptomyces sp. GF3587; conditions: 10 mM coenzyme, 10 mM 2-methyl-1-pyrroline, pH 7.0, 30° C.
Protocol: (§1) The cells of Streptomyces sp. GF3587 were cultured according to Example 1, and then crushed with glass beads. A crude enzyme solution was prepared by removing intact microbial cells and cell debris by centrifugation. 100 μl of the crude enzyme solution was added to 100 mM phosphate buffer (pH 7.0) containing 10 mM 2-methyl-1-pyrroline and 10 mM NADH or NADPH. During incubation of the mixture at 30° C., absorbance was measured at 340 nm to monitor the decrease of NAD(P)H. The enzymatic activity was determined by this assay.

[3] = Optimal temperature of imine reductase; format: biochemical, Streptomyces sp. GF3587; conditions: pH 7.0, 10 to 70° C. tested
Protocol: The imine reductase purified from GF3587 was tested for its optimal temperature. 1 ml of reaction solution having the composition described below were incubated at 10 to 70° C. to measure the decrease of absorbance (340 nm) of NADPH due to the generation of (R)-2-methylpyrrolidine. After the reaction solutions were pre-incubated at each temperature for five minutes, an imine reductase solution (12.3 U/ml) was added thereto to initiate the reaction. After two minutes, the absorbance of the reaction solutions was measured at 340 nm. The amount of imine reductase that catalyzes the decrease (oxidation) of 1 μmol of NADPH per minute when incubated at 30° C. in the reaction solution having the composition described below is defined as 1 U. The result is shown in FIG. 7.

[4] = Optimal pH of imine reductase; format: biochemical, Streptomyces sp. GF3587; conditions: 30° C.
Protocol: Furthermore, the imine reductase purified from GF3587 was tested for its optimal pH. The reaction was started by adding an imine reductase (6.82 U/ml) solution to reaction mixtures having the same composition as shown in (1), except that various types of buffer agents were added. The mixtures were incubated at 30° C. for two minutes. The buffers used in this experiment and their pH are listed below.
100 mM citrate buffer: pH 3 to 6
100 mM sodium acetate buffer: pH 4 to 5.5
100 mM potassium phosphate buffer: pH 6 to 8
100 mM Tris-HCl buffer: pH 7.5 to 9
100 mM glycine-sodium hydroxide buffer: pH 9 to 11
The reaction solutions were assayed to determine the decreases in absorbance (340 nm) of NADPH due to the generation of (R)-2-methylpyrrolidine. […] Furthermore, 80% or more of the maximal activity was retained at pH 6.0 to 7.5.

[5] = Imine-reducing activity of microbial cell extracts of recombinant E. coli JM109; format: biochemical; conditions: protein expressed in E. coli
Protocol: as §1
The E. coli JM109 strain that had been transformed with an imine reductase expression plasmid pSUSRIR1 was cultured in an ampicillin-containing liquid LB medium at 30° C. overnight. After adding 0.1 mM IPTG, the cells were further cultured for four hours.
The microbial cells were harvested by centrifugation, and then suspended in 100 mM potassium phosphate buffer (pH 7.0) containing 1 mM DTT. The microbial cells were crushed in Sealed-Type Ultrasonic Cell Disruptor UCD-200™ (Cosmo Bio). After centrifugation, the supernatant was collected as microbial cell extract. […] After adding 0.1 mM IPTG the cells were further cultured for four hours. Using the same method, the microbial cells were also crushed to prepare microbial cell extract.
Each microbial cell extract was assayed for its imine-reducing activity towards 2-methyl-1-pyrroline. […]

Molecule: C1=NCCCN1 [1,4,5,6-Tetrahydropyrimidine]
- Relative Activity ([1]; substrate 10 mM): 0

Molecule: CC1=NCCC1 [2-Methyl-1-pyrroline (2-MPN), 2-Methyl-1-pyrroline]
- level of activity of reducing the compound, activity of reducing 2-methyl-1-pyrroline taken as 100 [1]: 100%
- enzymatic activity corresponding to relative activity 100 ([1]; substrate 10 mM): 2.04 U/mL
- Relative Activity ([1]; substrate 10 mM): 100

Molecule: Cc1ccco1 [2-Methylfuran]
- Relative Activity ([1]; substrate 10 mM): 0

Molecule: Cc1ncc[nH]1 [2-Methylimidazole]
- Relative Activity ([1]; substrate 10 mM): 0

Molecule: Cc1cnccn1 [2-Methylpyrazine]
- Relative Activity ([1]; substrate 10 mM): 0

Molecule: Cc1ncccn1 [2-Methylpyrimidine]
- Relative Activity ([1]; substrate 10 mM): 0

Molecule: Cc1nccs1 [2-Methylthiazole]
- Relative Activity ([1]; substrate 10 mM): 0

Molecule: Cc1cccs1 [2-Methylthiophene]
- Relative Activity ([1]; substrate 5 mM): 0

Molecule: CC(=NO)c1ccccc1 [Acetophenone oxime]
- Relative Activity ([1]; substrate 1 mM): 0

Molecule: Nc1nc2c(c(=O)[nH]1)N=C(CNc1ccc(C(=O)N[C@@H](CCC(=O)O)C(=O)O)cc1)CN2 [Dihydrofolic acid]
- level of activity of reducing the compound, activity of reducing 2-methyl-1-pyrroline taken as 100 [1]: 7.6%
- Relative Activity ([1]; substrate 0.05 mM): 7.6

Molecule: C/C(=N\c1ccccc1)c1ccccc1 [N-((E/Z)-N-(1-phenylethylidene)aniline]
- level of activity of reducing the compound, activity of reducing 2-methyl-1-pyrroline taken as 100 [1]: 29%
- Relative Activity ([1]; substrate 25 mM): 29

Molecule: C(=NCc1ccccc1)c1ccccc1 [N-Benzylidenebenzylamine]
- Relative Activity ([1]; substrate 10 mM): 30

Molecule: NC(=O)C1=CN([C@@H]2O[C@H](COP(=O)(O)OP(=O)(O)OC[C@H]3O[C@@H](n4cnc5c(N)ncnc54)[C@H](O)[C@@H]3O)[C@@H](O)[C@H]2O)C=CC1 [NADH]
- activity with the coenzyme, activity with NADPH taken as 100% [2]: 7%

Molecule: NC(=O)C1=CN([C@@H]2O[C@H](COP(=O)(O)OP(=O)(O)OC[C@H]3O[C@@H](n4cnc5c(N)ncnc54)[C@H](OP(=O)(O)O)[C@@H]3O)[C@@H](O)[C@H]2O)C=CC1 [NADPH, reduced nicotinamide adenine dinucleotide phosphate]
- activity with the coenzyme, activity with NADPH taken as 100% [2]: 100%

B1: imine reductase purified from GF3587: NADPH-dependent imine reductase purified from Streptomyces sp. GF3587, amino acid sequence SEQ ID NO: 6 (protein)
chain: MGDNRTPVTVIGLGLMGQALAAAFLEAGHTTTVWNRSAGKAEQLVSQGAVQAATPADAVAASELVVVCLSTYDNMHDVIGSLGESLRGKVIVNLTSGSSDQGRETAAWAEKQGVEYLDGAIMITPPGIGTETAVLFYAGTQSVFEKYEPALKLLGGGTTYLGTDHGMPALYDVSLLGLMWGTLNSFLHGVAVVETAGVGAQQFLPWAHMWLEAIKMFTADYAAQIDAGDGKFPANDATLETHLAALKHLVHESEALGIDAELPKYSEALMERVISQGHAKNSYAAVLKAFRKPSE
modifications: Streptomyces sp. GF3587
- optimal temperature [3]: 50 °C
- optimal pH [4]: 6.5

B2: Q1EQE0: putative protein of Streptomyces kanamyceticus, SEQ ID NO: 17, imine reductase homologue (protein, listed as Streptomyces kanamyceticus)
chain: MPDNPSTKGRMMRNQQAEHTPVTVIGLGLMGQALAGAFLGAGHPTTVWNRTAAKAEPLVARGAKSAGSVAEAVAASPLVVVCVSDYDAVHALLDPLDGTALQGRTLVNLTSGTSAQARERAAWADGRGADYLDGAILAGPAAIGTADAVVLLSGPRSAFDPHASALGGLGAGTTYLGADHGLASLYDAAGLVMMWSILNGFLQGAALLGTAGVDATTFAPFITQGIGTVADWLPGYARQIDDGAYPADDAAIDTHLATMEHLIHESEFLGVNAELPRFIKALADRAVADGHGGSGYPALIEQFRTHSGK
- imine-reducing activity in words [5]: exhibited the imine-reducing activity; also recorded: had imine-reducing activity
